Measured values as given in patent US20160108027A1, “SUBSTITUTED BENZOXAZOLES” (BAYER PHARMA AKTIENGESELLSCHAFT, priority 2013, published 2016).

Columns and labels:
thrombin [1] = molecular target: T1, thrombin (Homo sapiens, UniProt P00734); assay: Determination of the thrombin-inhibitory activity in plasma samples (ecarin-activated); assay type: biochemical; details: citrate plasma, ecarin activation, fluorogenic thrombin substrate; in some cases means of individual determinations
In short: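 Citrate plasma activated with ecarin (final 20 mU per reaction) in Ca buffer (Hepes, NaCl, CaCl2, PEG), with compound diluted from DMSO into water. Fluorogenic thrombin substrate at final 50 μmol/l; fluorescence (ex 360/em 465 nm) read each minute for 20 minutes, with buffer-only unstimulated control.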

thrombin [2] = molecular target: T1, thrombin; assay: Measurement of the thrombin inhibition in buffer; assay type: biochemical; details: human thrombin 0.06 nmol/l in Tris buffer pH 7.4, 22° C., substrate Boc-Asp(OBzl)-Pro-Arg-AMC; in some cases means of individual determinations
In short: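 Compound pre-incubated 15 min at 22° C with 0.06 nmol/l human thrombin in 50 mmol/l Tris, 100 mmol/l NaCl, 0.1% BSA, pH 7.4, then 5 μmol/l Boc-Asp(OBzl)-Pro-Arg-AMC added for 30 min. AMC fluorescence read at 360/460 nm against DMSO controls; IC50 from concentration–activity curves.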

IC50 (thrombin [1]) [nM]	IC50 (thrombin [2]) [nM]	SMILES
35	17	COc1cc(C(=O)N2CC(C)CCC2C2(O)CC2)cc2nc(NCc3cc(Cl)ccn3)oc12 (single isomer, unassigned) [Example 89, (2-{[(4-Chloropyridin-2-yl)methyl]amino}-7-methoxy-1,3-benzoxazol-5-yl) [2-(1-hydroxycyclopropyl)-5-methylpiperidin-1-yl]methanone]
24	13	COc1cc(C(=O)N2CC(C)CCC2C2(O)CC2)cc2nc(NCc3cc(Cl)ccn3)oc12 (single isomer, unassigned) [Example 91, (2-{[(4-Chloropyridin-2-yl)methyl]amino}-7-methoxy-1,3-benzoxazol-5-yl) [2-(1-hydroxycyclopropyl)-5-methylpiperidine-1-yl]methanone]
27	17	COc1cc(C(=O)N2CCCC2(C)C(=O)N2CCOCC2)cc2nc(NCc3cc(Cl)ccn3)oc12 (single isomer, unassigned) [Example 18, (2-{[(4-Chloropyridin-2-yl)methyl]amino}-7-methoxy-1,3-benzoxazol-5-yl) [2-methyl-2-(morpholin-4-ylcarbonyl)pyrrolidin-1-yl]methanone]
